Data from patent publication US20110118226A1 (priority 2008, published 2011).

Legend:
[1] = Stability of danazol in analysis medium and receptor phase (3% cetrimide solution); assay type: physicochemical; details: analysis medium (mobile phase) and receptor phase (3% cetrimide solution)
[2] = cited from earlier work

Compound: C#C[C@]1(O)CC[C@H]2[C@@H]3CCC4=Cc5oncc5C[C@]4(C)[C@H]3CC[C@@]21C [Danazol, (17α)-Pregna-2,4-dien-20-yno[2,3-d]isoxazol-17β-ol]
- Time for which danazol was stable [1]: 30 h
- Bioavailability of oral danazol [2]: 11%
